Key:
[1] = system: IMQ-induced psoriasis mouse model; assay: IMQ-induced psoriasis mouse model (PASI scoring); assay type: in vivo, Balb/c mice; conditions: IMQ-induced psoriasis mice; GEN1-284s 30 mg/kg PO qD
Method: Method: This experiment used a total of 19 mice. A natural skin observation control (n=1). 2 cm^2 of hair was shaved off the backs of […] on day 0, the stubble was removed with a mild depilatory cream, and the original skin was photographed. 62.5 mg of IMQ was applied to each of the mice. There was a mock group (n=6), a DEX (3 mg/kg, PO., qD) group (n=6), and a GEN1-284s (30 mg/kg, PO, qD) group (n=6). On the day of modeling, administration was performed in a volume of 100 μL/20 g body weight 4 h after IMQ application. The PASI scoring method was used to score the erythema, swelling and scaling on the skin of the mice. The experiment took a total of 6 days. The first day was set to day 0. IMQ application and administration were not performed on day 5. The mice were sacrificed with carbon dioxide at the end of the experiment.
The test animals were anesthetized with isoflurane. 2 cm^2 of hair was shaved off the backs of the mice, and the stubble was removed with a depilatory cream. IMQ application was performed for a total of 5 days, from day 0 to day 4. Scoring and IMQ application were performed every morning. Administration was performed in the afternoon
Desquamation (D): means epidermal cells flake off. The severity scores of skin lesions were as follows: • 0=none; this sign cannot be confirmed by careful observation • 1=mild; this sign can be confirmed but careful observation is required • 2=moderate; this sign is more visible and can be confirmed immediately • 3=severe; this sign is marked. • 4=very severe; this sign is very marked.
Induration I: 0—skin lesions are at the same level as normal skin; • 1—skin lesions are at slightly higher levels than normal skin surface; • 2—lesions moderately stick out and have round or slope-shaped borders; • 3—skin lesions are thick and markedly stick out; • 4—skin lesions are very thick and very markedly stick out.
Erythema E: • 0—no visible erythema; • 1—light red; • 2—red; • 3—dark red; • 4—the red is very dark

[2] = system: Apoe KO mouse atherosclerosis model; assay: Atherosclerosis model: plaques in the cardiac (left ventricular) outflow tract; assay type: in vivo, C57BL/6 Apoe KO mice; conditions: Apoe KO mice, high-fat diet; GEN1-284s 60 mpk QD oral
Method: (§1) Method: Apoe KO mice were tested for basal blood lipid levels and divided into a normal control group and a high-fat group. After 8 weeks of housing, the mice from the high-fat group were divided into 4 groups of about 8: a normal diet group (Chow), a high-fat diet model group (HFD), an Atorvastatin positive group (HFD+atorvastatin 5 mpk, QD), and a GEN1-284s group (284-60 mpk, QD). Oral administration was performed for 8 consecutive weeks, and the effect of the compound on the following indicators in Apoe KO mice was observed: 4 blood lipid tests (TC, TG, HDL-C and LDL-C), aortic plaque En-face staining, and pathological oil red staining of the cardiac outflow tract.
(§2) Mice from the groups except for the normal diet control group (Chow) were fed with high-fat feed every day for […]. From week 9, each group was orally administered solvent or a corresponding test compound, and body weight data were recorded every day for 8 consecutive weeks. After the first 8 weeks' high-fat diet, blood samples were taken and centrifuged to separate serum, and the serum was tested for blood lipid levels (TCHO, TG, LDL-C and HDL-C). The mice were randomly grouped according to the TCHO results and body weight. During the subsequent 8 weeks of administration, blood lipid tests (TCHO, TG, LDL-C and HDL-C) were run once every 4 weeks.
Mouse heart samples were fixed overnight in 4% paraformaldehyde solution and dehydrated in sucrose solution. Then, the samples were embedded with OCT (Sakura, Japan) under a stereo microscope and made into 10 μm frozen sections. The sections were stained with oil red ORO and then subjected to routine pathological examinations. Images of the outflow tract were acquired under an optical microscope at 4× magnification, and high-quality morphological observations were carried out using an eyepiece with 20× magnification. The percentage of intimal lesions in the cardiac outflow tract was calculated. The detection criteria followed the criteria for histological classification of human atherosclerotic disease, which are described in detail below:
The area of plaques in the left ventricular outflow tract was measured using a microscope, and the proportion of plaques in the left ventricular outflow tract was calculated; this value reflects the degree of stenosis in the cardiac outflow tract vessel.

[3] = system: Apoe KO mouse atherosclerosis model; assay: Atherosclerosis model: aortic plaque En-face staining and plaque area; assay type: in vivo, C57BL/6 Apoe KO mice; conditions: Apoe KO mice, high-fat diet; GEN1-284s 60 mpk QD oral
Method: as §1, §2
At the end of the experiment, the mice were euthanized by CO2 inhalation, and their hearts and aortas (from the aortic arch to the iliac artery) were isolated. The isolated artery was dissected longitudinally from the aortic arch to the iliac artery, fixed in 4% paraformaldehyde for 30 min, synchronized with 60% isopropanol for 10 min, then stained in 60% oil red for 30 min, and then washed with 60% isopropanol 3 times for 5 min each time. Finally, the stained aorta was washed with deionized water and photographed. The proportion of red plaque areas was measured using Image Pro Plus 6.0 (Media Cybernetics, MD, US).

O=C(Cc1ccc2ncccc2c1)N1CCC(n2c(=O)n(COP(=O)([O-])[O-])c3cccc(C(F)(F)F)c32)CC1.[Na+].[Na+] [GEN1-284 salt, (2-Oxo-3-(1-(2-(quinolin-6-yl)acetyl)piperidin-4-yl)-4-(trifluoromethyl)-2,3-dihydro-1H-benzo[d]imidazol-1-yl)methyl disodium phosphate]
Swelling of the skin [1]: partially ameliorate the psoriatic swelling | Left ventricular outflow tract plaques [2]: a certain ameliorating effect on outflow tract plaques | Formation of atherosclerotic plaques [3]: significantly reduced the formation of atherosclerotic plaques

Reference: patent US20240391940A1, “FUSED RING-CONTAINING COMPOUND, APPLICATION THEREOF, AND COMPOSITION CONTAINING SAME” (GenEros Biopharma Ltd., priority 2020, published 2024)
